Assay: logP determination by HPLC on a reversed-phase column (C 18), EEC Directive 79/831 Annex V.A8
Type: physicochemical
Conditions: HCO2H; HPLC reversed-phase column (C 18), 43° C.; read-out: logP (HCO2H)
Protocol: The stated logP values were determined in accordance with EEC Directive 79/831 Annex V.A8 by HPLC (high performance liquid chromatography) on a reversed-phase column (C 18). Temperature: 43° C.

| Compound | chromatographic logP |
| --- | --- |
| C/C(=N\OC[Si](C)(C)CO/N=C(\C)c1cccc(C)n1)c1cccc(C)n1 [(1E,1E′)-1-(6-methylpyridin-2-yl)ethanone O,O′-[(dimethylsilanediyl)bis(methylene)]oxime] | 4.5 |

Same assay, conditions: method marked [a] in Table 1

| logP | Compound |
| --- | --- |
| 4.46^[a] | Cc1cccc(C(=NOCC2(CON=C(c3cccc(C)n3)C3CC3)CC(c3ccccc3Cl)=NO2)C2CC2)n1 (stereo not shown) [compound 648] |
| 7.36^a] | CC(=NOCC(C)(C)CON=C(C)c1cccc(-c2cc(Cl)cc(Cl)c2)n1)c1cccc(-c2cc(Cl)cc(Cl)c2)n1 [compound 578] |
| 7.36^[a] | CC(=NOCC(C)(C)CON=C(C)c1cccc(-c2ccc(Cl)c(C(F)(F)F)c2)n1)c1cccc(-c2ccc(Cl)c(C(F)(F)F)c2)n1 [compound 577] |

Same assay, conditions: method marked [b] in Table 1

| Compound | logP |
| --- | --- |
| CC(=NOC(C)CC(C)ON=C(C)c1cc(C)cc(C)n1)c1cc(C)cc(C)n1 (stereo not shown) [Compound 557] | 2.39^[b] |
| Cc1cccc(C=NOCCCON=Cc2cccc(C)n2)n1 [Compound 669] | 2.54^[b] |

The next lines start with the values.

| logP | Compound |
| --- | --- |
| 4.72^[b] | CCCC1=NOC(CON=C(CC)c2cccc(C)n2)(CON=C(CC)c2cccc(C)n2)C1 (stereo not shown) [compound 608] |
| 3.46^[b] (isomer B) | C=C(CON=C(C)c1cccc(C)n1)CON=C(c1cccc(C)n1)C1CC1 (single isomer, unassigned) [compound 537] |
| 4.17^[b] | CC(=NOCc1cccc(CON=C(C)c2cccc(C)n2)c1)c1cccc(C)n1 [compound 704] |
| 3.70^[b] | CC(=NOCC1(CON=C(C)c2ccc(C)c(C)n2)CC(CC(C)C)=NO1)c1ccc(C)c(C)n1 (stereo not shown) [compound 630] |
| 3.42^[b] | CCC(=NOCC1(CON=C(CC)c2cccc(C)n2)CC(C)=NO1)c1cccc(C)n1 (stereo not shown) [compound 605] |
| 6.22^[b] | CCCC(=NOCC1(CON=C(CCC)c2cccc(C)n2)CC(CC(C)C)=NO1)c1cccc(C)n1 (stereo not shown) [compound 619] |
| 4.46^[b] | CC(=NOCC1(CON=C(C)c2cccc(C)n2)CC(c2ccccc2Cl)=NO1)c1cccc(C)n1 (stereo not shown) [compound 602] |

Same assay, conditions: method marked [c] in Table 1

| logP | Compound |
| --- | --- |
| 6.63^[c] | CC(=NOC(C)CC(C)ON=C(C)c1cc(C)cc(C)n1)c1cc(C)cc(C)n1 (stereo not shown) [Compound 557] |

Same assay, conditions: method marker [a] (footnote not shown); isomer A / isomer B / isomer mixture as noted in the cell

| logP | Compound |
| --- | --- |
| 2.24^[a] | CC(=NOCC1(CON=C(C)c2cccc(C)n2)CO1)c1cccc(C)n1 (stereo not shown) [compound 220] |
| 6.22^a] | Cc1cccc(C(=NOCC(C)CON=C(c2cccc(C)n2)C(C)C)C(C)C)n1 (stereo not shown) [compound 138] |
| 2.44^[a] | CC(=NOCCCC(=O)ON=C(C)c1cccc(C)n1)c1cccc(C)n1 [compound 171] |
| 4.73^[a] | CCCC(=NOCC(C)CON=C(CCC)c1ncccc1C)c1ncccc1C (mixture of isomers) [compound 111] |
| 3.12^[a] | CC(=NOCC(C)CON=C(C)c1ncccc1C)c1ncccc1C (stereo not shown) [compound 128] |
| 1.73^[a] | CC(=NOCC(C)(O)CON=C(C)c1ccccn1)c1ccccn1 (stereo not shown) [compound 2] |
| 5.52^[a] (isomer B) | Cc1cccc(C(=NOCCCON=C(c2cccc(C)n2)C(C)C)C(C)C)n1 (single isomer, unassigned) [Compound 88] |
| 2.85^[a] | Cc1cccc(C(=NOCCCON=C(c2cccc(C)n2)C2CC2)C2CC2)n1 (mixture of isomers) [Compound 167] |

Same assay, conditions: method marker [b]; isomer A / isomer B / isomer mixture as noted in the cell

| logP | Compound |
| --- | --- |
| 3.09^[b] | C=C(CON=C(C)c1cccc(C)n1)CON=C(N)c1nc(C2CC2)cc(C2CC2)n1 [Compound 243] |
| 6.51^[b] | C=C(CON=C(C)c1ccc2ccccc2n1)CON=C(C)c1ccc2ccccc2n1 [compound 63] |
| 5.82^[b] | C=C(CON=C(C)c1ncc(C(F)(F)F)cc1Cl)CON=C(C)c1ncc(C(F)(F)F)cc1Cl [compound 149] |
| 1.73^[b] | Cc1cc(C)nc(/C(N)=N/OCCCCO/N=C(\N)c2nc(C)cc(C)n2)n1 [compound 4] |
| 3.50^[b] | C=C(CON=C(C)c1cccc(C)n1)CON=C(C)c1c(C)noc1C [compound 198] |
| 3.08^[b] (isomer A) | C=C(CON=C(C)c1cccc(C)n1)CON=C(C)c1nc(C)cc(OC)n1 (single isomer, unassigned) [Compound 177] |

Same assay, conditions: reversed-phase HPLC column (C 18); HCO2H; HPLC reversed-phase column (C 18), 43° C.; read-out: logP (HCO2H)

| chromatographic logP | Compound |
| --- | --- |
| 2.31 | C/C(=N\OCC(C)CO/N=C(\C)c1cccc(C)n1)c1cccc(C)n1 [1-(6-methylpyridin-2-yl)ethanone O,O′-(2-methylpropane-1,3-diyl)oxime] |

Same assay, conditions: value marked [a]

| Compound | logP |
| --- | --- |
| C=C(CON=C(C)c1cccc(C)n1)CON=C(Cl)c1ccc(C)c(C)n1 [Compound 807] | 3.8^[a] |
| CC(=NOCC(C)CON=C(C)c1cccc(N2CCCC2)n1)c1cccc(N2CCCC2)n1 (stereo not shown) [Compound 783] | 2.51^[a] |
| COC(=NOCC(C)CON=C(OC)c1cccc(C)n1)c1cccc(C)n1 (stereo not shown) [Compound 835] | 1.95^[a] |
| CC(=NOCCCON=C(C)c1ccc2c(n1)CCCC2)c1ccc2c(n1)CCCC2 [compound 305] | 3.96^[a] |

Other lines, results leading:

| logP | Compound |
| --- | --- |
| 4.17^[a] | Cc1cc(C)nc(C(Cl)=NOCC(C)CON=C(Cl)c2cc(C)cc(C)n2)c1 (stereo not shown) [compound 833] |
| 7.36^[a] | CC(=NOCCC(C)CCON=C(C)c1ccc(C(F)(F)F)cn1)c1ccc(C(F)(F)F)cn1 (stereo not shown) [compound 832] |
| 4.20^[a] | C=C(CON=C(C#N)c1cccc(C)n1)CON=C(C#N)c1ccc(C)c(C)n1 [compound 828] |
| 3.52^[a] | CC(=NOCC(C)CON=C(C)c1csc(C)n1)c1csc(C)n1 (stereo not shown) [compound 517] |

Same assay, conditions: value marked [b]

| Compound | logP |
| --- | --- |
| CC(=NOCC(C)CON=C(C)c1cccc(C(C)C)n1)c1cccc(C)n1 (stereo not shown) [Compound 504] | 6.29^b] |
| CC(=NOCCCCCCON=C(C)c1cncc(C)n1)c1cccc(C)n1 [compound 466] | 4.8^[b] |
| CCC(CC)(CON=C(C)c1ccc(C)c(C)n1)CON=C(C)c1ccc(C)c(C)n1 [Compound 810] | 6.50^[b] |
| C=C(CON=C(C)c1cc(C)ccn1)CON=C(C)c1cccc(C)n1 [compound 398] | 2.76^[b] |
| CCC(CC)(CON=C(C)c1cccc(C)n1)CON=C(C)c1cccc(C)n1 [Compound 809] | 6.68^[b] |
| C=C(CON=C(C)c1cccc(C)n1)CON=C(C)c1cccc2ccccc12 [compound 406] | 5.02^[b] |
| CC(=NOCC(O)CON=C(C)c1cccc(C)n1)c1cccc(C)n1 (stereo not shown) [compound 293] | 1.46^[b] |
| CC(=NOCC(C)(C)CON=C(C)c1cccnc1C)c1cccc(C)n1 [compound 488] | 2.20^[b] |
| CC(=NOCC(CON=C(C)c1ccc(C)c(C)n1)c1ccccc1)c1ccc(C)c(C)n1 (stereo not shown) [Compound 318] | 4.02^[b] |
| CC(=NOCCCCCCON=C(Cc1ccccc1)c1ncccc1C)c1cccc(C)n1 [compound 339] | 5.90^[b] (isomer B) |
| COC(CON=C(C)c1ccc(C)c(C)n1)CON=C(C)c1ccc(C)c(C)n1 (stereo not shown) [Compound 321] | 1.95^[b] |

The next lines start with the values.

| logP | Compound |
| --- | --- |
| 1.75^[b] | Cc1cc(C)nc(C(N)=NOC/C=C\CON=C(N)c2nc(C)cc(C)n2)n1 [compound 773] |
| 3.65^[b] (isomer A) | CC(=NOCCCCON=C(c1cccc(C)n1)C(C)C)c1cccc(C)n1 (single isomer, unassigned) [compound 525] |
| 3.65^[b] (isomer A) | C=C(CON=C(C)c1cccc(C)n1)CON=C(CCC)c1ncccc1C (single isomer, unassigned) [compound 534] |
| 2.98^[b] | C=C(CON=C(C)c1cnccn1)CON=C(C)c1cccc(C)n1 [compound 514] |
| 3.52^[b] | CC(=NOCC(C)CON=C(C)c1csc(C)n1)c1csc(C)n1 (stereo not shown) [compound 517] |
| 4.25^[b] | CC(=NOCCCCCCON=C(C)c1cccc(C)n1)c1cnccn1 [compound 513] |

Same assay, conditions: value marked [c]

| logP | Compound |
| --- | --- |
| 7.36^[c] | CCC(CC)(CON=C(C)c1ccc(C)c(C)n1)CON=C(C)c1ccc(C)c(C)n1 [Compound 810] |
| 6.97^[c] | CCC(CC)(CON=C(C)c1cccc(C)n1)CON=C(C)c1cccc(C)n1 [Compound 809] |
| 6.45^[c] | CC(=NOCC(CON=C(C)c1ccc(C)c(C)n1)c1ccccc1)c1ccc(C)c(C)n1 (stereo not shown) [Compound 318] |
| 5.06^[c] | COC(CON=C(C)c1ccc(C)c(C)n1)CON=C(C)c1ccc(C)c(C)n1 (stereo not shown) [Compound 321] |
